# In PMC12655351, “Synthesis and Anticancer Activity Evaluation of New 5-((5-Nitrofuran-2-yl)allylidene)-2-thioxo-4-thiazolidinones” (Pharmaceuticals, 2025):
# Tests used:
# [1] = tested on: UACC-257; assay: cells; settings: Homo sapiens, UACC-257, 48 h; for CC50: read-out: LC50, UACC-257, 48 h
# [2] = tested on: TK-10; settings: TK-10, 48 h
# [3] = tested on: SK-MEL-28; assay: cells; settings: Homo sapiens, SK-MEL-28, 48 h; for CC50: read-out: LC50, SK-MEL-28, 48 h
# [4] = tested on: Renal Cancer; assay: cells; settings: Homo sapiens; for GI50: read-out: MG_MID GI50; for CC50: read-out: MG_MID LC50
# [5] = tested on: Prostate Cancer; assay: cells; settings: Homo sapiens, read-out: MG_MID GI50
# [6] = tested on: EKVX; assay: NCI-60 SRB screen; settings: 48 h; for GI50 / CC50: Homo sapiens; for CC50: read-out: LC50, EKVX, 48 h
# [7] = tested on: Leukemia; settings: Leukemia subpanel
# [8] = tested on: Ovarian cancer; settings: Ovarian cancer subpanel
# [9] = tested on: NCI-H266; assay: NCI-60 SRB screen; settings: for GI50 / CC50: Homo sapiens, 48 h; for GI50 / TGI: NCI-H266, 48 h; for CC50: read-out: LC50, NCI-H266, 48 h
# [10] = tested on: CNS cancer; assay: cells; settings: Homo sapiens; for GI50: read-out: MG_MID GI50; for CC50: read-out: MG_MID LC50
# [11] = tested on: LOX IMVI; settings: LOX IMVI, 48 h
# [12] = tested on: NCI/ADR-RES; settings: 48 h
# [13] = tested on: PC-3; settings: PC-3, 48 h
# [14] = tested on: MDA-MB-231; assay: [3H]-thymidine incorporation assay; format: cell-based; settings: Homo sapiens; MDA-MB-231, 24 h of treatment
# Summary of the method: (§1)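 Cells treated 24 h with compound at 1, 5, 10 μM (MCF-7) or 5, 15, 30 μM (MDA-MB-231), in triplicate, then pulsed with 0.5 μCi [3H]-thymidine for 4 h at 37 °C. TCA-precipitated, lysed cells counted by scintillation; uptake expressed as percent of control.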
# [15] = tested on: MCF-7; assay: [3H]-thymidine incorporation assay; format: cell-based; settings: Homo sapiens, MCF7; MCF-7, 24 h of treatment
# Summary of the method: as §1
# [16] = tested on: SN12C; assay: cells; settings: Homo sapiens, 48 h; for CC50: read-out: LC50, SN12C, 48 h
# [17] = tested on: U251; assay: NCI-60 SRB screen; settings: for GI50 / CC50: Homo sapiens, U-251, 48 h; for GI50 / TGI: U251, 48 h; for CC50: read-out: LC50, U251, 48 h
# [18] = tested on: HCC-2998; settings: for TGI: HCC-2998, 48 h
# [19] = tested on: CNS cancer; settings: CNS cancer subpanel
# [20] = tested on: HS 578T; assay: cells; settings: Homo sapiens, 48 h; for GI50: HS 578T; for CC50: read-out: LC50
# [21] = tested on: Breast cancer; settings: Breast cancer subpanel
# [22] = tested on: SK-OV-3; assay: cells; settings: Homo sapiens, SK-OV-3, 48 h; for CC50: read-out: LC50, SK-OV-3, 48 h
# [23] = tested on: HCT-15; assay: NCI-60 SRB screen; settings: HCT-15, 48 h
# [24] = tested on: T-47D; settings: 48 h
# [25] = tested on: NCI-H23; settings: NCI-H23, 48 h
# [26] = tested on: T-47D; assay: cells; settings: Homo sapiens, T47D, 48 h; for GI50: T-47D; for CC50: read-out: LC50
# [27] = tested on: SN12C; settings: SN12C, 48 h
# [28] = tested on: SK-MEL-28; settings: SK-MEL-28, 48 h
# [29] = tested on: MALME-3M; assay: NCI-60 SRB screen; settings: 48 h; for GI50 / CC50: Homo sapiens, Malme-3M; for CC50: read-out: LC50, MALME-3M, 48 h; for TGI: MALME-3M
# [30] = tested on: Leukemia; assay: cells; settings: Homo sapiens; for GI50: read-out: MG_MID GI50; for CC50: read-out: MG_MID LC50
smiles,measurement,setting,value
"O=C(O)C(c1ccccc1)N1C(=O)/C(=C/C=C/c2ccc([N+](=O)[O-])o2)SC1=S (stereo not drawn) [9b, 2-((Z)-5-((E)-3-(5-Nitrofuran-2-yl)allylidene)-4-oxo-2-thioxothiazolidin-3-yl)-2-phenylacetic acid]",GI50,[1],13.2 µM
same,CC50,[1],56.1 µM
same,TGI,[2],30.0 µM
same,GI50,[3],10.7 µM
same,CC50,[3],51.1 µM
same,GI50,[4],9.53 µM
same,CC50,[4],50.7 µM
same,GI50,[5],12.5 µM
same,TGI,[6],28.1 µM
same,GI50,[6],14.3 µM
same,CC50,[6],55.1 µM
same,MG_MID TGI,[7],24.2 µM
same,MG_MID TGI,[8],27.9 µM
same,GI50,[9],12.2 µM
same,CC50,[9],89.7 µM
same,TGI,[9],33.1 µM
same,GI50,[10],9.99 µM
same,CC50,[10],48.4 µM
same,TGI,[11],25.9 µM
same,TGI,[12],33.9 µM
same,TGI,[13],29.9 µM
same,IC50,[14],7.53 µM
same,IC50,[15],7.98 µM
same,GI50,[16],5.39 µM
same,CC50,[16],45 µM
same,GI50,[17],4.11 µM
same,CC50,[17],49.8 µM
same,TGI,[17],16.5 µM
same,TGI,[18],29.9 µM
same,MG_MID TGI,[19],21.7 µM
same,GI50,[20],4.59 µM
same,CC50,[20],> 100 µM
same,MG_MID TGI,[21],22.2 µM
same,GI50,[22],15.9 µM
same,CC50,[22],56.3 µM
same,TGI,[23],22.9 µM
same,GI50,[23]; Homo sapiens,7.73 µM
same,CC50,"[23]; Homo sapiens, read-out: LC50, HCT-15, 48 h",59 µM
same,TGI,[24],39.4 µM
same,TGI,[25],31.0 µM
same,GI50,[26],11.1 µM
same,CC50,[26],> 100 µM
same,TGI,[27],18.3 µM
same,TGI,[28],23.4 µM
same,GI50,[29],5.4 µM
same,CC50,[29],48.8 µM
same,TGI,[29],18.7 µM
same,GI50,[30],6.64 µM
same,CC50,[30],> 100 µM
"O=C(O)CCN1C(=O)/C(=C/C=C/c2ccc([N+](=O)[O-])o2)SC1=S [12b, 3-((Z)-5-((E)-3-(5-Nitrofuran-2-yl)allylidene)-4-oxo-2-thioxothiazolidin-3-yl)propanoic acid]",GI50,[1],1.81 µM
same,CC50,[1],9.21 µM
same,TGI,[2],3.81 µM
same,GI50,[3],1.57 µM
same,CC50,[3],5.93 µM
same,GI50,[4],3.05 µM
same,CC50,[4],11.9 µM
same,GI50,[5],2.55 µM
same,TGI,[6],9.26 µM
same,GI50,[6],2.69 µM
same,CC50,[6],31.1 µM
same,MG_MID TGI,[7],2.52 µM
same,MG_MID TGI,[8],5.84 µM
same,GI50,[9],2.83 µM
same,CC50,[9],79.7 µM
same,TGI,[9],12.5 µM
same,GI50,[10],1.62 µM
same,CC50,[10],12.3 µM
same,growth GP,[11]; 10 μM,-95.70%
same,TGI,[11],1.86 µM
same,TGI,[12],4.28 µM
same,TGI,[13],10.6 µM
same,IC50,[14],1.82 µM
same,IC50,[15],6.66 µM
same,GI50,[16],1.07 µM
same,CC50,[16],5.04 µM
same,GI50,[17],1.07 µM
same,CC50,[17],5.53 µM
same,TGI,[17],2.43 µM
same,growth GP,"[18]; HCC-2998, 10 μM, 48 h",-95.81%
same,TGI,[18],9.26 µM
same,MG_MID TGI,[19],4.09 µM
same,GI50,[20],1.45 µM
same,CC50,[20],> 100 µM
same,MG_MID TGI,[21],3.64 µM
same,GI50,[22],4.7 µM
same,CC50,[22],43.7 µM
same,TGI,[23],3.50 µM
same,TGI,[24],3.55 µM
same,TGI,[25],3.37 µM
same,GI50,[26],0.94 µM
same,CC50,[26],> 100 µM
same,growth GP,[27]; 10 μM,-95.84%
same,TGI,[27],2.32 µM
same,TGI,[28],3.05 µM
same,GI50,[29],0.5 µM
same,CC50,[29],4.25 µM
same,TGI,[29],1.66 µM
same,GI50,[30],0.66 µM
same,CC50,[30],> 100 µM
